Experiment [1] has as its system KRAS mutant pancreatic ductal adenocarcinoma (PDAC) cells. Put plainly: Sensitivity of KRAS mutant PDAC cell lines. Type of experiment: cell-based. The note with it: 5 KRAS mutant PDAC cell lines, APC wild-type. The procedure: (B) 5Z-7-oxozeaenol IC50 values for KRAS mutant PDAC and NSCLC cell lines.
To determine if sensitivity to TAK1 inhibition is specific to colon cancer-derived cell lines, sensitivity to 5Z-7-oxozeaenol was assessed in 5 KRAS mutant pancreatic ductal adenocarcinoma (PDAC) and 4 non-small cell lung cancer (NSCLC) cells, all of which are APC wild-type (FIG. 9B).

The subject of experiment [2] is HT29 vector control cells. In words: Sensitivity of HT29 vector control cells. Type of experiment: cell-based, human. The procedure:
(E) Introduction of a V5-tagged constitutively activated (CA) mutant of the BMP receptor, BMPR1A (Q233D) or control vector in HT29 cells and effects on 5Z-7-oxozeaenol sensitivity in terms of IC50 values.
To determine whether TAK1-independent cells could be driven toward TAK1 dependency by enhanced KRAS/Wnt signaling, a series of reconstitution experiments was performed. HT29, SW620 or SKCO1 cells were infected with recombinant lentiviruses encoding either BMPR1A-CA and CTNNB1-CA or vector control (containing the ccDB gene). For BMPR1A-CA stable expression, cells were selected in 5 μg/mlBlasticidin for 7 days and pooled clones were established. Stable expression was verified using the V5 epitope tag on the BMPR1A transgene product. For CTNNB1-CA, the pWPI recombinant lentiviruses encode GFP driven by IRES. Thus, stable cell clones were obtaining by FACS live cell sorting to obtain the top 10% of GFP expressing cells. The SW620-CTNNB1-CA stable cell clones were passaged 1:5 every 2 days and assayed for KRAS dependency after the fifth passage.
To further define the role of BMP signaling in TAK1 dependency, a constitutively-activated (CA) variant (Q233D) of BMPR1A (Zou et al., 1997) was ectopically expressed in HT29 cells. […] This was accompanied by dose-dependent decreases in Axin 2 and phosphorylated Smad2 levels. […]

Consider one compound from patent US20140243403A1, “TREATING COLORECTAL, PANCREATIC, AND LUNG CANCER” (The General Hospital Corporation, priority 2011, published 2014).

The structures appear in SMILES notation.

In the case of `COc1cc(O)c2c(c1)/C=C/C[C@H](O)[C@H](O)C(=O)/C=C\C[C@H](C)OC2=O` [5Z-7-oxozeaenol], in experiment [1], the “sensitivity to 5Z-7-oxozeaenol” value is recorded as “largely refractory”. The compound also registered an IC50 in experiment [2] of 7.7 µM.

The term IC50 denotes the point on the concentration scale where inhibition reaches its midpoint.
